# Key:
# Test in all cases: competitive isoTOP-ABPP
# Assay type in all cases: binding
# [1] = biological target: T1, NUDT2 Bis(5-nucleosyl)-tetraphosphatase (Homo sapiens, UniProt P50583)
# T1 construct: isoTOP-ABPP experiments performed in cell lysates (in vitro); endogenous in cells
# Method: (§1) In vitro covalent fragment treatment for isoTOP-ABPP. All compounds were made up as solutions in DMSO (100×) and were used at a final concentration of 50 μM for activated esters and 100 μM for guanidinylating agents. For each profiling sample, 0.5 ml of lysate was treated with 5 μl of the 100× compound stock solution or 5 μl of DMSO. Samples were treated with activated esters for
# (§2) STP-alkyne labeling and click chemistry. For concentration-dependent reactivity measurements by isoTOP-ABPP, 0.5 ml proteome aliquots were treated at ambient temperature with 1 mM STP-alkyne 1 (5 μl of 100 mM stock in DMSO) and 0.1 mM STP alkyne 1 (5 μl of 10 mM stock in DMSO), respectively. For competitive isoTOP-ABPP, after in vitro fragment treatment (detailed above), the samples were labeled for 1 h at ambient temperature with 0.1 mM STP-alkyne 1 (5 μl of 10 mM stock in DMSO). Samples were conjugated by copper-mediated azide-alkyne cycloaddition (CuAAC) to either the light (1 mM STP-alkyne or fragment treated) or heavy (0.1 mM STP-alkyne or DMSO treated) TEV tags (10 μl of 5 mM stocks in DMSO, final concentration=100 μM) using tris(2-carboxyethyl)phosphine hydrochloride
# (§3) R value calculation and processing. The ratios of light and heavy MS1 peaks for each unique peptide were quantified with a CIMAGE software using default parameters (3 MS1 acquisitions per peak and signal to noise threshold set to 2.5). For reactivity measurements by isoTOP-ABPP, the R value was calculated from the ratio of MS1 peak areas, comparing the 1 mM STP alkyne sample (light TEV tag) with the 0.1 mM STP alkyne sample (heavy TEV tag). For competitive isoTOP-ABPP, the R value was calculated from the ratio of MS1 peak areas, comparing the DMSO treated sample (heavy TEV tag) with the compound treated sample (light TEV tag). […] Ratios for unique peptide entries are calculated for each experiment; overlapping peptides with the same modified lysine (for example, different charge states, MudPIT chromatographic steps or tryptic termini) are grouped together and the median ratio is reported as the final ratio (R). The peptide ratios reported by CIMAGE were further filtered to ensure the removal or correction of low-quality ratios in each individual data set. The quality filters applied were the following: removal of half tryptic peptides; for ratios with high standard deviations from the median (90% of the median or above) the lowest ratio was taken instead of the median; removal of peptides with R=20 and only a single MS2 event triggered during the elution of the parent ion; manual annotation of all the peptides with ratios of 20, removing any peptides with low quality elution profiles that remained after the previous curation steps (only done for competitive isoTOP-ABPP).
# (§4) Cross-data processing for fragment screening. For compound treated samples, biological replicates of the same condition were averaged, if the standard deviation was below 60% of the mean; otherwise, for lysines with at least one R value <4 for a particular compound, the lowest value of the ratio set was taken. For lysines, where all R values for a particular compound were ≥4, the average was reported. For peptides containing several possible modified lysines, the lysine with the highest number of quantification events was used for analysis and the remaining, redundant peptides were reported as alternative modification sites. Peptides included in the aggregate dataset (those used for further bioinformatics and statistical analyses) were required to have been quantified in 2 experiments for competitive isoTOP-ABPP. Lysines were categorized as liganded, if they had at least one ratio R≥4 (hit fragments). For liganded lysines with R=20 for all liganding events, lysines were required to have been quantified with R=20 in two separate experiments and were further required to have been quantified with R<20 in one additional experiment.
# [2] = biological target: T2, ACBD3 Golgi resident protein GCP60 (Homo sapiens, UniProt Q9H3P7)
# T2 construct: isoTOP-ABPP experiments performed in cell lysates (in vitro); endogenous in cells; host or cells: soluble proteome of human cancer cell lines (MDA-MB-231; Ramos and Jurkat also prepared)
# T2 sequence (Q9H3P7 1-528): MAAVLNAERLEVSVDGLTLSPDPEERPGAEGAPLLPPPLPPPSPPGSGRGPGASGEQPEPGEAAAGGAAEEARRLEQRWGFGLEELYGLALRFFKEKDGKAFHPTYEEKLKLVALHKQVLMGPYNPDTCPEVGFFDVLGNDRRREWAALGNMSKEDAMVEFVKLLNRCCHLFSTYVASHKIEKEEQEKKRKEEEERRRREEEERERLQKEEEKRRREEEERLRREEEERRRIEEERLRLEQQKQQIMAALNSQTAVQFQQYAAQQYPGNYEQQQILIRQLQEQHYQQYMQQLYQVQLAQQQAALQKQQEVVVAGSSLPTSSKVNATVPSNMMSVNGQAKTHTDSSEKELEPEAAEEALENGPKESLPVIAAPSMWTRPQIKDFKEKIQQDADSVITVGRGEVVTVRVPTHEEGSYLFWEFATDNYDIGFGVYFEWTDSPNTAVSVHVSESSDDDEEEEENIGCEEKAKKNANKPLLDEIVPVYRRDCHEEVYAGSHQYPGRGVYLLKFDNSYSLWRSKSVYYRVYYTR
# Method: as §1, §2, §3, §4
# [3] = biological target: T3, TPMT Thiopurine S-methyltransferase (Homo sapiens, UniProt P51580)
# T3 construct: isoTOP-ABPP experiments performed in cell lysates (in vitro); endogenous in cells; host or cells: soluble proteome of human cancer cell lines (MDA-MB-231; Ramos and Jurkat also prepared)
# T3 sequence (P51580 1-245): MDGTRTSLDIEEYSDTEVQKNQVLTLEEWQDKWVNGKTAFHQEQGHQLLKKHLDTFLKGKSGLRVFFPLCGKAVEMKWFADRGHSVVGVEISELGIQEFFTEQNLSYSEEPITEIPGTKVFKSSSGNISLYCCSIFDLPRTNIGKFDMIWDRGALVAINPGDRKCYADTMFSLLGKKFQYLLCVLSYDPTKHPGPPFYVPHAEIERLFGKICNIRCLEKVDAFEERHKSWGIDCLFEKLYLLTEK
# Method: as §1, §2, §3, §4
# T1 sequence (P50583 whole entry): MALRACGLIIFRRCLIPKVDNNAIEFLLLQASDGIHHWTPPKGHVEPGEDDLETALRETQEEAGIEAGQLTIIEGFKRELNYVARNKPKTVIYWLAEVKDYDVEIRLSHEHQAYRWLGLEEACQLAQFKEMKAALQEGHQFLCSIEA
"R value (DMSO/fragment) for probe 1 labeling ([1]; P50583_K89, 50 uM, 231 sol, in vitro)","R value (DMSO/fragment) for probe 1 labeling ([2]; Q9H3P7_K117, 50 uM, 231 sol, in vitro)","R value (DMSO/fragment) for probe 1 labeling ([3]; P51580_K32, 50 uM, 231 sol, in vitro)","isoTOP-ABPP ratio, lysine P50583_K89 ([1]; 50 uM_231_sol_in vitro, possible other lysine P50583_K87)","isoTOP-ABPP ratio, lysine Q9H3P7_K117 ([2]; 50 uM_231_sol_in vitro)","isoTOP-ABPP ratio, lysine P51580_K32 ([3]; 50 uM_231_sol_in vitro)",SMILES
1.0,1.0,1.3,,,,"O=C(CCc1cn(-c2ccccc2)nc1-c1ccccc1)Oc1c(F)c(F)c(F)c(F)c1F [fragment 19, Pentafluorophenyl 3-(1,3-diphenyl-1H-pyrazol-4-yl)propanoate]"
,,,1.0,0.9,4.4,"O=C(Oc1c(F)c(F)cc(F)c1F)c1cc(C(F)(F)F)cc(C(F)(F)F)c1 [fragment 48, 2,3,5,6-Tetrafluorophenyl 3,5-bis(trifluoromethyl)benzoate]"

# Source: patent publication US20210255193A1, “LYSINE REACTIVE PROBES AND USES THEREOF” (The Scripps Research Institute, priority 2017, published 2021)
